Structures are written as SMILES. pIC50: −log10 of the molar value. Bounds are passed on as bounds.

The target in one assay is T1, met (HGF receptor) in human gastric cancer cells MKN45 (Homo sapiens, UniProt P08581).
T1 construct: endogenous in cells; host or cells: MKN45 human gastric cancer cells
T1 sequence (P08581 25-1390): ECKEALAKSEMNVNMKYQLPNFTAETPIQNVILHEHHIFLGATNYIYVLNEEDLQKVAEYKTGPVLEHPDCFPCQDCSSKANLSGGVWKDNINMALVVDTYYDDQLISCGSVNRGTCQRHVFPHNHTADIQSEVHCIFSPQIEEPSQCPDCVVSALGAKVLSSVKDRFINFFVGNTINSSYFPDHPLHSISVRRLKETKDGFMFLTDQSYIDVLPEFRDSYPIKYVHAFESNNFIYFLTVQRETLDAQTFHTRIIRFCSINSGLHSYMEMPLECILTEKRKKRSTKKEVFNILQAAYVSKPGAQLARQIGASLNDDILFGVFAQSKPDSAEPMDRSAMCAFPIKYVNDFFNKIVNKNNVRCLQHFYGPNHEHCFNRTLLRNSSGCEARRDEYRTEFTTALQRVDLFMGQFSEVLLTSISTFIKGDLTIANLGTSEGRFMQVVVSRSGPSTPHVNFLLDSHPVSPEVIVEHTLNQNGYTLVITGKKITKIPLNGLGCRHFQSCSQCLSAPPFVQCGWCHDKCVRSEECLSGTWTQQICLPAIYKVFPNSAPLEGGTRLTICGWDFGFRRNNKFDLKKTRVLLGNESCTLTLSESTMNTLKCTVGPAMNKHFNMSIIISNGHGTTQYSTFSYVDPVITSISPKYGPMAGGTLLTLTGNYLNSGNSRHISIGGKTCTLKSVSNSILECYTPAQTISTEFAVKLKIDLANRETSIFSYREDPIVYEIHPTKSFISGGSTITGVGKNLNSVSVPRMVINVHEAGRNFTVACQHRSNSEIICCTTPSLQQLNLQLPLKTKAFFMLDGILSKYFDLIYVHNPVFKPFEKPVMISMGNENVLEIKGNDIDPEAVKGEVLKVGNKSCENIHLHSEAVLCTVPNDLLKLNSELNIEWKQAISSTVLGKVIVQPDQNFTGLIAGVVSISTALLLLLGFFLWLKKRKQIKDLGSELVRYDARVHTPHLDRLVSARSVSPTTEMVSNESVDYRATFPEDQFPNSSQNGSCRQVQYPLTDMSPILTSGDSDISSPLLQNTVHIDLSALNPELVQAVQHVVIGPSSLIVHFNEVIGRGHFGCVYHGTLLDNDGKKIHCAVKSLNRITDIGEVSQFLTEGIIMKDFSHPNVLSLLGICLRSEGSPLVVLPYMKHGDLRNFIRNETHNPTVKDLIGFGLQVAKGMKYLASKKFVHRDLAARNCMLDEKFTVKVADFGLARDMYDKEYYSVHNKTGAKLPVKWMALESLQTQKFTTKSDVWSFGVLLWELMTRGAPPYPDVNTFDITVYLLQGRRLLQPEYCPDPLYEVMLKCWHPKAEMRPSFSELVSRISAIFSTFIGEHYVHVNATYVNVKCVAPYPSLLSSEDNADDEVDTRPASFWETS
Kind of assay: Inhibitory activity against met-autophosphorylation using ELISA method (2), MKN45 cells, HGF-independent. The format is cell-based.
Conditions: not given
The procedure, abridged:
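MKN45 cells, 3×10^4 per well in RPMI with 0.1% FCS overnight, were exposed to compound in DMSO for 1 h at 37 °C without HGF. Lysates were captured on anti-phosphotyrosine (PY20) plates, Met detected with anti-Met and peroxidase secondary antibody, absorbance at 450 nm.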
For `COc1cc2c(Oc3ccc(NC(=S)NC(=O)Cc4ccccc4F)cc3F)ccnc2cc1OCCCN1CCOCC1` [Example 288, 1-{3-Fluoro-4-[6-methoxy-7-(3-morpholin-4-yl-propoxy)-quinolin-4-yloxy]-phenyl}-3-[2-(2-fluoro-phenyl)-acetyl]-thiourea], the pIC50 is 7.65.

`COc1cc2c(Oc3ccc(NC(=S)NC(=O)Cc4cccc(F)c4)cc3F)ccnc2cc1OCC(O)CN1CCOCC1` (stereo not shown) [Example 323, 1-{3-Fluoro-4-[7-(2-hydroxy-3-morpholin-4-yl-propoxy)-6-methoxy-quinolin-4-yloxy]-phenyl}-3-[2-(3-fluoro-phenyl)-acetyl]-thiourea]: the pIC50 was > 8.00.

Regarding `COc1cc2c(Oc3ccc(NC(=S)NC(=O)Cc4ccccc4F)cc3F)ccnc2cc1OCC(O)CN1CCOCC1` (stereo not shown) [Example 315], the negative logarithm of the IC50 (pIC50) was 7.68.

Molecule `COc1cc2c(Oc3ccc(NC(=S)NC(=O)Cc4cccc(Cl)c4)cc3F)ccnc2cc1OCC(O)CN1CCOCC1` (stereo not shown) [Example 320, 1-[2-(3-Chloro-phenyl)-acetyl]-3-{3-fluoro-4-[7-(2-hydroxy-3-morpholin-4-yl-propoxy)-6-methoxy-quinolin-4-yloxy]-phenyl}-thiourea] showed a negative logarithm of the IC50 (pIC50) of 7.85.

On to `COc1cc2c(Oc3ccc(NC(=S)NC(=O)Cc4ccccc4)cc3F)ccnc2cc1OCC(O)CN1CCCCC1` (stereo not shown) [Example 331], for which the pIC50 was 7.66.

Molecule `COc1cc2c(Oc3ccc(NC(=S)NC(=O)Cc4cccc(C)c4)cc3F)ccnc2cc1OCC(O)CN1CCOCC1` (stereo not shown) [Example 334] gave a negative logarithm of the IC50 (pIC50) of 7.64. This pIC50 and that of the molecule before are within 0.2 log units of each other.

In turn, `COc1cc2c(Oc3ccc(NC(=O)NC(=O)Cc4ccc(F)cc4)cc3F)ccnc2cc1OCCCN1CCOCC1` [Example 46, 1-{3-fluoro-4-[6-methoxy-7-(3-morpholin-4-yl-propoxy)quinolin-4-yloxy]phenyl}-3-[2-(4-fluorophenyl)-acetyl]urea] had a pIC50 of 6.64.

Molecule `COc1cc2nccc(Oc3ccc(NC(=S)NC(=O)Cc4ccccc4)c(Cl)c3)c2cc1OC` [Example 65, 1-[2-chloro-4-(6,7-dimethoxyquinolin-4-yloxy)-phenyl]-3-phenylacetylthiourea] gave a negative-log IC50 (pIC50) of 7.18. This pIC50 is 0.54 log units higher than that of the molecule before.

The molecule `COc1cc2c(Oc3ccc(NC(=S)NC(=O)Cc4cccc(F)c4)cc3F)ccnc2cc1OCC(O)CN1CCCC1` (stereo not shown) [Example 325, 1-{3-Fluoro-4-[7-(2-hydroxy-3-pyrrolidin-1-yl-propoxy)-6-methoxy-quinolin-4-yloxy]-phenyl}-3-[2-(3-fluoro-phenyl)-acetyl]-thiourea] showed a negative-log IC50 (pIC50) of 7.73.

In turn, `COc1cc2nccc(Oc3ccc(NC(=O)NC(=O)Nc4ccnn4C)cc3)c2cc1OC` [Example 237, N-(1-methyl-1H-5-pyrazolyl)-({[4-(6,7-dimethoxyquinolin-4-yloxy)anilino]carbonyl}amino)-methanamide] gave a pIC50 of 5.83.

In the case of `COc1cc2nccc(Oc3ccc(NC(=O)NC(=O)Nc4ccccc4Cl)cc3)c2cc1OC` [Example 248, N-(2-chlorophenyl)-({[4-(6,7-dimethoxy-quinolin-4-yloxy)anilino]carbonyl}amino)methanamide], the pIC50 is 6.02.

For `COc1cc2nccc(Oc3ccc(NC(=O)CC(=O)Nc4ccc(F)cc4)cc3)c2cc1OC` [Example 5, N-[4-(6,7-dimethoxyquinolin-4-yloxy)phenyl]-N′-(4-fluorophenyl)malonamide], the pIC50 is 7.72. Against the preceding molecule, the pIC50 is 1.70 log units higher.

In the case of `COc1cc2nccc(Oc3ccc(NC(=O)C(C)(C)C(=O)Nc4ccccc4)cc3)c2cc1OC` [Example 228, N-[4-(6,7-dimethoxyquinolin-4-yloxy)phenyl]-2,2-dimethyl-N′-phenylmalonamide], the pIC50 is 6.40.

On to `COc1cc2nccc(Oc3ccc(NC(=O)NC(=O)Cc4cccs4)cc3F)c2cc1OC` [Example 31, 1-[4-(6,7-dimethoxyquinolin-4-yloxy)-3-fluoro-phenyl]-3-(2-thiophen-2-ylacetyl)urea], for which the negative-log IC50 (pIC50) was 7.47.

For `COc1cc2nccc(Oc3ccc(NC(=S)NC(=O)Cc4ccccc4)cc3Cl)c2cc1OC` [Example 63, 1-[3-chloro-4-(6,7-dimethoxyquinolin-4-yloxy)-phenyl]-3-phenylacetylthiourea], the negative-log IC50 (pIC50) is 7.61. The pIC50 values of the last two molecules are within 0.2 log units of each other.

`COc1cc2nccc(Oc3ccc(NC(=S)NC(=O)Cc4ccccc4F)cc3)c2cc1OC` [Example 151, 1-[4-(6,7-dimethoxyquinolin-4-yloxy)phenyl]-3-[2-(2-fluorophenyl)acetyl]thiourea]: the pIC50 is 6.59. This pIC50 is 1.02 log units lower than that of the molecule before.

`COc1cc2nccc(Oc3ccc(NC(=S)NC(=O)CCc4ccccc4C)cc3F)c2cc1OC` [Example 64, 1-[4-(6,7-dimethoxyquinolin-4-yloxy)-3-fluoro-phenyl]-3-(3-o-tolylpropionyl)thiourea] showed a pIC50 of 6.85. Compared with the last molecule, the pIC50 is 0.26 log units higher.

In the case of `COc1cc2c(Oc3ccc(NC(=O)NC(=O)Cc4ccccc4)cc3F)ccnc2cc1OCCN1CCOCC1` [Example 54, 1-{3-fluoro-4-[6-methoxy-7-(2-morpholin-4-yl-ethoxy)quinolin-4-yloxy]phenyl}-3-phenylacetylurea], the pIC50 was 7.58.

In turn, `COc1cc2nccc(Oc3ccc(NC(=O)NC(=O)Cc4ccccc4)c(F)c3)c2cc1OC` [Example 16, 1-[4-(6,7-dimethoxyquinolin-4-yloxy)-2-fluoro-phenyl]-3-phenylacetylurea] had a negative logarithm of the IC50 (pIC50) of 7.48.

`COc1ccccc1CC(=O)NC(=S)Nc1ccc(Oc2ccnc3cc(OC)c(OC)cc23)c(F)c1` [Example 83, 1-[4-(6,7-dimethoxyquinolin-4-yloxy)-3-fluoro-phenyl]-3-[2-(2-methoxyphenyl)acetyl]thiourea] showed a pIC50 of 7.41. This pIC50 and that of the molecule before are within 0.2 log units of each other.

Take `COc1cc2c(Oc3ccc(NC(=S)NC(=O)Cc4ccccc4)cc3F)ccnc2cc1OCCN1CCC(CO)CC1` [Example 284, 1-(3-Fluoro-4-{7-[2-(4-hydroxymethyl-piperidin-1-yl)-ethoxy]-6-methoxy-quinolin-4-yloxy}-phenyl)-3-phenylacetyl-thiourea]: the pIC50 was 7.82.

With `COc1cc2c(Oc3ccc(NC(=S)NC(=O)Cc4ccccc4)cc3Cl)ccnc2cc1OCCCN1CCOCC1` [Example 300, 1-{3-Chloro-4-[6-methoxy-7-(3-morpholin-4-yl-propoxy)-quinolin-4-yloxy]-phenyl}-3-phenylacetyl-thiourea], the pIC50 is 7.65.

With `COc1cc2nccc(Oc3ccc(NC(=S)NC(=O)Cc4ccccc4C)cc3Cl)c2cc1OC` [Example 149, 1-[3-chloro-4-(6,7-dimethoxyquinolin-4-yloxy)phenyl]-3-(2-o-tolylacetyl)thiourea], the negative-log IC50 (pIC50) was 6.63.

In turn, `COc1cc2c(Oc3ccc(NC(=S)NC(=O)Cc4ccc(Cl)cc4)cc3F)ccnc2cc1OCC(O)CN1CCCC1` (stereo not shown) [Example 328, 1-[2-(4-Chloro-phenyl)-acetyl]-3-{3-fluoro-4-[7-(2-hydroxy-3-pyrrolidin-1-yl-propoxy)-6-methoxy-quinolin-4-yloxy]-phenyl}-thiourea] showed a pIC50 of 7.36.

As to `COc1cc2nccc(Oc3ccc(NC(=S)NC(=O)Cc4ccc(F)cc4)cc3Cl)c2cc1OC` [Example 73, 1-[3-chloro-4-(6,7-dimethoxyquinolin-4-yloxy)-phenyl]-3-[2-(4-fluorophenyl)acetyl]thiourea], the pIC50 is 7.55.

As for `COc1cc2nccc(Oc3ccc(NC(=O)NC(=O)c4ccccc4C)c(F)c3)c2cc1OC` [Example 108, 1-[4-(6,7-dimethoxyquinolin-4-yloxy)-2-fluorophenyl]-3-(2-methyl-benzoyl)urea], the negative-log IC50 (pIC50) is 5.68.

Consider `COc1cc2nccc(Oc3ccc(NC(=S)NC(=O)Cc4ccccc4F)c(F)c3)c2cc1OC` [Example 80, 1-[4-(6,7-dimethoxyquinolin-4-yloxy)-2-fluoro-phenyl]-3-[2-(2-fluorophenyl)acetyl]thiourea], for which the pIC50 was 7.52.

Consider `COc1cc2nccc(Oc3ccc(NC(=O)NC(=O)Nc4ccc([N+](=O)[O-])cc4)cc3)c2cc1OC` [Example 254, N-(4-nitrophenyl)-({[4-(6,7-dimethoxy-quinolin-4-yloxy)anilino]carbonyl}amino)methanamide], for which the pIC50 was 6.44.

`COc1cc2c(Oc3ccc(NC(=O)NC(=O)Cc4ccc(F)cc4)cc3F)ccnc2cc1OCC(O)CN1CCOCC1` (stereo not shown) [Example 336, 1-{3-Fluoro-4-[7-(2-hydroxy-3-morpholin-1-yl-propoxy)-6-methoxy-quinolin-4-yloxy]-phenyl}-3-[2-(4-fluoro-phenyl)-acetyl]-urea] had a pIC50 of 7.48. Compared with the last molecule, the pIC50 is 1.04 log units higher.

In turn, `COc1cc2nccc(Oc3ccc(NC(=S)NC(=O)Cc4cc(F)cc(F)c4)c(F)c3)c2cc1OC` [Example 196, 1-[2-(3,5-difluorophenyl)acetyl]-3-[4-(6,7-dimethoxyquinolin-4-yloxy)-2-fluorophenyl]thiourea] gave a pIC50 of 6.49. This pIC50 is 0.99 log units lower than that of the molecule before.

In the case of `COc1cc2nccc(Oc3ccc(NC(=O)NC(=O)c4ccccc4Cl)c(F)c3)c2cc1OC` [Example 107, 1-(2-chloro-benzoyl)-3-[4-(6,7-dimethoxy-quinolin-4-yloxy)-2-fluorophenyl]urea], the pIC50 is 6.46.

The subject of a further assay is Human gastric cancer cells (MKN 45). Nature of the assay: Tumor growth inhibitory activity against various human tumor cells in nude mice: MKN 45. The format is in vivo. The following applies: Mus musculus, MKN-45, po, 120 h, MKN45, Oral, 5 days; read-out: TGIR. The method, then:
Human gastric cancer cells (MKN 45) (obtained from RIKEN), human brain tumor cells (U87MG) (obtained from ATCC), human pancreatic cancer cells (KP4) (obtained from RIKEN), human pancreatic cancer cells (SUIT-2) (obtained from National Kyushu Cancer Center), and human signet-ring type gastric cancer cells (NUGC-4) (obtained from RIKEN), or human lung cancer cells (LC6) (obtained from Central Laboratories for Experimental Animals) were transplanted into nude mice. […] The test compound suspended in 0.5% methylcellulose was orally administered once or twice a day for 5 days. Only 0.5% methylcellulose was administered to the control group in the manner as in the test groups. Alternatively, the test compound dissolved in physiological saline (with a 1 N aqueous hydrochloric acid solution added thereto) was intraveneously injected once a day for 5 days, and only physiological saline (with a 1 N aqueous hydrochloric acid solution added thereto) was administered to the control group in the same manner as in the test groups. The tumor growth inhibition rate (TGIR) was calculated as follows: The tumor growth inhibition rate (TGIR)=(1−TX/CX)×100 wherein CX represents the relative tumor volume at the 5th day for the control group when the tumor volume at the day of the start of the administration was presumed to be 1; and TX represents the relative tumor volume for test compound administration groups.
With `COc1cc2c(Oc3ccc(NC(=S)NC(=O)Cc4ccccc4F)cc3F)ccnc2cc1OCCCN1CCOCC1` [Example 288, 1-{3-Fluoro-4-[6-methoxy-7-(3-morpholin-4-yl-propoxy)-quinolin-4-yloxy]-phenyl}-3-[2-(2-fluoro-phenyl)-acetyl]-thiourea], the inhibition in vivo at 30 mg/kg was 64%.

For the molecule `COc1cc2c(Oc3ccc(NC(=S)NC(=O)Cc4cccc(F)c4)cc3F)ccnc2cc1OCC(O)CN1CCOCC1` (stereo not shown) [Example 323, 1-{3-Fluoro-4-[7-(2-hydroxy-3-morpholin-4-yl-propoxy)-6-methoxy-quinolin-4-yloxy]-phenyl}-3-[2-(3-fluoro-phenyl)-acetyl]-thiourea], the inhibition in vivo at 30 mg/kg was found to be 34%.

In the case of `COc1cc2c(Oc3ccc(NC(=S)NC(=O)Cc4ccccc4F)cc3F)ccnc2cc1OCC(O)CN1CCOCC1` (stereo not shown) [Example 315], the inhibition in vivo at 30 mg/kg was 36%.

With `COc1cc2c(Oc3ccc(NC(=S)NC(=O)Cc4cccc(Cl)c4)cc3F)ccnc2cc1OCC(O)CN1CCOCC1` (stereo not shown) [Example 320, 1-[2-(3-Chloro-phenyl)-acetyl]-3-{3-fluoro-4-[7-(2-hydroxy-3-morpholin-4-yl-propoxy)-6-methoxy-quinolin-4-yloxy]-phenyl}-thiourea], the inhibition in vivo at 30 mg/kg was 20%.

Regarding `COc1cc2c(Oc3ccc(NC(=S)NC(=O)Cc4ccccc4)cc3F)ccnc2cc1OCC(O)CN1CCCCC1` (stereo not shown) [Example 331], the inhibition in vivo at 30 mg/kg amounted to 40%.

For the molecule `COc1cc2c(Oc3ccc(NC(=S)NC(=O)Cc4cccc(C)c4)cc3F)ccnc2cc1OCC(O)CN1CCOCC1` (stereo not shown) [Example 334], the inhibition in vivo at 30 mg/kg was 65%.

As a reminder, the pIC50 is the IC50 on a negative log10 scale, so that one unit is a factor of ten.

The record behind these values is US8324245B2, “Quinoline derivative and quinazoline derivative inhibiting self-phosphorylation of hepatocytus proliferator receptor, and medicinal composition containing the same” (Kyowa Hakko Kirin Co., Ltd., priority 2001, dated 2012).
